≈ marks a conversion by molar mass, not a printed value.
Legend:
KB cells = experiment: KB antitumor test (cytotoxicity); assay type: cell-based, human; conditions: Tumor Cell 9KB; dose which inhibits growth to 50% of control growth by 3 days after drug addition
Method: The cytotoxic activity of the compounds of the invention can be tested by a KB antitumor test. KB cells are derived from human epidermoid carcinoma of the mouth and are cultivated on Eagel's basal medium plus 10% serum. Stock cells are fed 24 hours before testing. Test drug is added on day 0 or day 1. Results are expressed as the dose which inhibits growth to 50% of control growth by 3 days after drug addition.
When the K8 antitumor test was conducted on benzanthrins A and B, the following test data resulted: […]

[1] = tested on: Staphylococcus aureus ATCC 6538P; experiment: MIC, agar dilution method; assay type: cell-based; conditions: Brain Heart Infusion agar, 10^5 CFU inoculum
Method: (§1) The antibacterial activity of the compounds of the invention against a variety of microorganisms is illustrated in Table 3. Minimum inhibitory concentrations were determined by the agar dilution method using brain heart infusion agar with 10 ^5 CFU (colony forming units) as the inoculum.

Pseudomonas cepacia 2961 = experiment: MIC, agar dilution method; assay type: cell-based; conditions: Brain Heart Infusion agar, 10^5 CFU inoculum
Method: as §1

[2] = tested on: Streptococcus faecium ATCC 8043; experiment: MIC, agar dilution method; assay type: cell-based; conditions: Brain Heart Infusion agar, 10^5 CFU inoculum
Method: as §1

Escherichia coli SS = experiment: MIC, agar dilution method; assay type: cell-based; conditions: Brain Heart Infusion agar, 10^5 CFU inoculum
Method: as §1

[3] = tested on: Staphylococcus epidermidis 3519 RAR1; experiment: MIC, agar dilution method; assay type: cell-based; conditions: Brain Heart Infusion agar, 10^5 CFU inoculum
Method: as §1

Acinetobacter CMX 669 = experiment: MIC, agar dilution method; assay type: cell-based; conditions: Brain Heart Infusion agar, 10^5 CFU inoculum
Method: as §1

[4] = tested on: Streptococcus pyogenes 930; experiment: MIC, agar dilution method; assay type: cell-based; conditions: Brain Heart Infusion agar, 10^5 CFU inoculum
Method: as §1

[5] = tested on: Staphylococcus epidermidis 3519; experiment: MIC, agar dilution method; assay type: cell-based; conditions: Brain Heart Infusion agar, 10^5 CFU inoculum
Method: as §1

Escherichia coli DC-2 = experiment: MIC, agar dilution method; assay type: cell-based; conditions: Brain Heart Infusion agar, 10^5 CFU inoculum
Method: as §1

[6] = tested on: Enterobacter aerogenes ATCC 13048; experiment: MIC, agar dilution method; assay type: cell-based; conditions: Brain Heart Infusion agar, 10^5 CFU inoculum
Method: as §1

[7] = tested on: Klebsiella pneumoniae ATCC 8045; experiment: MIC, agar dilution method; assay type: cell-based; conditions: Brain Heart Infusion agar, 10^5 CFU inoculum
Method: as §1

Sarcina lutea 9341 = experiment: MIC, agar dilution method; assay type: cell-based; conditions: Brain Heart Infusion agar, 10^5 CFU inoculum
Method: as §1

Escherichia coli Juhl = experiment: MIC, agar dilution method; assay type: cell-based; conditions: Brain Heart Infusion agar, 10^5 CFU inoculum
Method: as §1

Staphylococcus aureus 45 = experiment: MIC, agar dilution method; assay type: cell-based; conditions: Brain Heart Infusion agar, 10^5 CFU inoculum
Method: as §1

[8] = tested on: Streptococcus agalactiae CMX 508; experiment: MIC, agar dilution method; assay type: cell-based; conditions: Brain Heart Infusion agar, 10^5 CFU inoculum
Method: as §1

[9] = tested on: Staphylococcus aureus 45 RAR2; experiment: MIC, agar dilution method; assay type: cell-based; conditions: Brain Heart Infusion agar, 10^5 CFU inoculum
Method: as §1

[10] = tested on: Staphylococcus aureus CMX 686b; experiment: MIC, agar dilution method; assay type: cell-based; conditions: Brain Heart Infusion agar, 10^5 CFU inoculum
Method: as §1

[11] = tested on: Lactobacillus casei ATCC 7469; experiment: MIC, agar dilution method; assay type: cell-based; conditions: Brain Heart Infusion agar, 10^5 CFU inoculum
Method: as §1

[12] = tested on: Streptococcus bovis A5169; experiment: MIC, agar dilution method; assay type: cell-based; conditions: Brain Heart Infusion agar, 10^5 CFU inoculum
Method: as §1

[13] = tested on: Pseudomonas aeruginosa 5007; experiment: MIC, agar dilution method; assay type: cell-based; conditions: Brain Heart Infusion agar, 10^5 CFU inoculum
Method: as §1

[14] = tested on: Staphylococcus aureus A5177; experiment: MIC, agar dilution method; assay type: cell-based; conditions: Brain Heart Infusion agar, 10^5 CFU inoculum
Method: as §1

[15] = tested on: Streptococcus pyogenes EES61; experiment: MIC, agar dilution method; assay type: cell-based; conditions: Brain Heart Infusion agar, 10^5 CFU inoculum
Method: as §1

Row | SMILES | ED50 (KB cells) [µg/mL] | MIC [1] [µg/mL] | MIC (Pseudomonas cepacia 2961) [µg/mL] | MIC [2] [µg/mL] | MIC (Escherichia coli SS) [µg/mL] | MIC [3] [µg/mL] | MIC [4] [µg/mL] | MIC [5] [µg/mL] | MIC (Escherichia coli DC-2) [µg/mL] | MIC [6] [µg/mL] | MIC [7] [µg/mL] | MIC (Escherichia coli Juhl) [µg/mL] | MIC (Staphylococcus aureus 45) [µg/mL] | MIC [8] [µg/mL] | MIC [9] [µg/mL] | MIC [10] [µg/mL] | MIC [11] [µg/mL] | MIC [12] [µg/mL] | MIC [13] [µg/mL] | MIC [14] [µg/mL] | other results
1 | Cc1cc2cc(O)c3c(c2c(O[C@@H]2C[C@H](N(C)C)[C@@H](O)[C@@H](C)O2)c1[C@@H]1C[C@H](N(C)C)[C@@H](O)[C@H](C)O1)C(=O)c1cccc(O)c1C3=O [Benzanthrin A] | 100 to 300 | 3.1 (≈ 4.88 µM) | 100 (≈ 158 µM) | 1.56 (≈ 2.46 µM) | 3.1 (≈ 4.88 µM) | 3.1 (≈ 4.88 µM) | 0.2 (≈ 0.315 µM) | 3.1 (≈ 4.88 µM) | 100 (≈ 158 µM) | 100 (≈ 158 µM) | 100 (≈ 158 µM) | 100 (≈ 158 µM) | 3.1 (≈ 4.88 µM) | 0.78 (≈ 1.23 µM) | 3.1 (≈ 4.88 µM) | 3.1 (≈ 4.88 µM) | 0.78 (≈ 1.23 µM) | 0.39 (≈ 0.614 µM) | 100 (≈ 158 µM) | 3.1 (≈ 4.88 µM) | MIC (Acinetobacter CMX 669): 100 µg/mL (≈ 158 µM); MIC (Sarcina lutea 9341): 1.56 µg/mL (≈ 2.46 µM); MIC [15]: 1.56 µg/mL (≈ 2.46 µM)
2 | Cc1cc2cc(O)c3c(c2c(O[C@@H]2C[C@H](N(C)C)[C@H](O)[C@@H](C)O2)c1[C@@H]1C[C@H](N(C)C)[C@@H](O)[C@H](C)O1)C(=O)c1cccc(O)c1C3=O [Benzanthrin B] | 200 to 300 | 3.1 (≈ 4.88 µM) | 100 (≈ 158 µM) | 1.56 (≈ 2.46 µM) | 6.2 (≈ 9.77 µM) | 3.1 (≈ 4.88 µM) | 0.2 (≈ 0.315 µM) | 3.1 (≈ 4.88 µM) | 100 (≈ 158 µM) | 100 (≈ 158 µM) | 100 (≈ 158 µM) | 100 (≈ 158 µM) | 1.56 (≈ 2.46 µM) | 0.39 (≈ 0.614 µM) | 3.1 (≈ 4.88 µM) | 1.56 (≈ 2.46 µM) | 0.78 (≈ 1.23 µM) | 0.2 (≈ 0.315 µM) | 100 (≈ 158 µM) | 1.56 (≈ 2.46 µM) | MIC [15]: 0.39 µg/mL (≈ 0.614 µM)
